The values that follow come from patent US10590120B2, “Pesticidal compositions and methods” (Dow AgroSciences LLC, priority 2016, dated 2020).

SMILES strings stand for the structures.

Assay type in all cases: in vivo
For experiment [1], the system named is Beet Armyworm (Spodoptera exigua, LAPHEG) ("BAW"). Briefly: Insecticidal test for beet armyworm, 128-well diet tray assay. Particulars: 168 h, second instar larvae, 50 μg/cm^2 on artificial diet, 25° C., five to seven days, percent mortality averaged over eight wells. As to the method:
Insecticidal Test for Beet Armyworm (Spodoptera exigua, LAPHEG) (“BAW”)
(§1) Bioassays on beet armyworm (BAW; Spodoptera exigua: Lepidoptera) are conducted using a 128-well diet tray assay. One to five second instar BAW larvae are placed in each well (3 mL) of the diet tray that had been previously filled with 1 mL of artificial diet to which 50 μg/cm^2 of the test compound (dissolved in 50 μL of 90:10 acetone-water mixture) had been applied (to each of eight wells) and then allowed to dry. Trays are covered with a clear self-adhesive cover, vented to allow gas exchange, and held at 25° C., 14:10 light-dark for five to seven days. Percent mortality is recorded for the larvae in each well; activity in the eight wells is then averaged.

Experiment [2] has as its system Cabbage Looper (Trichloplusia ni, TRIPNI) ("CL"). Briefly: Insecticidal test for cabbage looper, 128-well diet tray assay. The note with it: Trichoplusia ni, 168 h; second instar larvae, 50 μg/cm^2 on artificial diet, 25° C., five to seven days, percent mortality averaged over eight wells. As to the method:
Insecticidal Test for Cabbage Looper (Trichloplusia ni, TRIPNI) (“CL”)
as §1, with “cabbage looper (CL; Trichloplusia ni:” for “beet armyworm (BAW; Spodoptera exigua:”, “CL” for “BAW”

In experiment [3] the test system is Yellow Fever Mosquito (Aedes aegypti, AEDSAE) ("YFM"). Briefly: Insecticidal test for yellow fever mosquito, 96-well plate larval assay. The note with it: about 1 day-old larvae, 4000 ppm master solution diluted, room temperature, scored for mortality after 3 days. As for the experimental part:
Insecticidal Test for Yellow Fever Mosquito (Aedes aegypti, AEDSAE) (“YFM”)
Master plates containing 400 μg of a molecule dissolved in 100 μL of dimethyl sulfoxide (DMSO) (equivalent to a 4000 ppm solution) are used. A master plate of assembled molecules contains 15 μL per well. To this plate, 135 μL of a 90:10 water/acetone mixture is added to each well. A robot (Biomek® NXP Laboratory Automation Workstation) is programmed to dispense 15 μL aspirations from the master plate into an empty 96-well shallow plate (“daughter” plate). There are 6 reps (“daughter” plates) created per master. The created “daughter” plates are then immediately infested with YFM larvae.
The day before plates are to be treated, mosquito eggs are placed in Millipore water containing liver powder to begin hatching (4 g. into 400 mL). After the “daughter” plates are created using the robot, they are infested with 220 μL of the liver powder/larval mosquito mixture (about 1 day-old larvae). After plates are infested with mosquito larvae, a non-evaporative lid is used to cover the plate to reduce drying. Plates are held at room temperature for 3 days prior to grading. After 3 days, each well is observed and scored based on mortality.

Broadly, the pest or weed control is the degree to which the test organism was suppressed or injured, in per cent. High values mean a strong effect, low ones a weak effect. On to `Cc1ccc(C(C)C)c(N2C(=O)CS/C2=N\C(=O)N/N=C/c2ccc(-c3ncn(-c4ccc(OC(F)(F)F)cc4)n3)cc2)c1` [Compound A1, N—((Z)-3-(2-isopropyl-5-methylphenyl)-4-oxothiazolidin-2-ylidene)-2-((E)-4-(1-(4-(trifluoromethoxy)phenyl)-1H-1,2,4-triazol-3-yl)benzylidene)hydrazine-1-carboxamide], for which the pest or weed control at 50 µg/cm2 in experiment [1] and in experiment [2] was 50 to 100% throughout.

`CC(C)c1ccccc1N1C(=O)CS/C1=N\C(=O)N/N=C/c1ccc(-c2ncn(-c3ccc(OC(F)(F)F)cc3)n2)cc1` [Compound A2, N—((Z)-3-(2-Isopropylphenyl)-4-oxothiazolidin-2-ylidene)-2-((E)-4-(1-(4-(trifluoromethoxy)phenyl)-1H-1,2,4-triazol-3-yl)benzylidene)hydrazine-1-carboxamide]: the pest or weed control at 50 µg/cm2 in experiment [1] and in experiment [2] was 50 to 100% each time. Moreover, the “YFM % Control” value in experiment [3] is reported as “A (80-100)”.

With `CCc1cccc(C)c1N1C(=O)CS/C1=N\C(=O)N/N=C/c1ccc(-c2ncn(-c3ccc(OC(F)(F)F)cc3)n2)cc1` [Compound A3, N—((Z)-3-(2-Ethyl-6-methylphenyl)-4-oxothiazolidin-2-ylidene)-2-((E)-4-(1-(4-(trifluoromethoxy)phenyl)-1H-1,2,4-triazol-3-yl)benzylidene)hydrazine-1-carboxamide], the pest or weed control at 50 µg/cm2 in experiment [1] and in experiment [2] was 50 to 100% each time.

Take `Cc1ccc(Cl)c(N2C(=O)CS/C2=N\C(=O)N/N=C/c2ccc(-c3ncn(-c4ccc(OC(F)(F)F)cc4)n3)cc2)c1` [Compound A4, N—((Z)-3-(2-Chloro-5-methylphenyl)-4-oxothiazolidin-2-ylidene)-2-((E)-4-(1-(4-(trifluoromethoxy)phenyl)-1H-1,2,4-triazol-3-yl)benzylidene)hydrazine-1-carboxamide]: the pest or weed control at 50 µg/cm2 in experiment [1] and in experiment [2] was 50 to 100% each time. The “YFM % Control” value in experiment [3] is reported as “A (80-100)”.

For the molecule `CCOc1ccc(C)cc1N1C(=O)CS/C1=N\C(=O)N/N=C/c1ccc(-c2ncn(-c3ccc(OC(F)(F)F)cc3)n2)cc1` [Compound A5, N—((Z)-3-(2-Ethoxy-5-methylphenyl)-4-oxothiazolidin-2-ylidene)-2-((E)-4-(1-(4-(trifluoromethoxy)phenyl)-1H-1,2,4-triazol-3-yl)benzylidene)hydrazine-1-carboxamide], the pest or weed control at 50 µg/cm2 in experiment [1] and in experiment [2] was 50 to 100% throughout.

For the molecule `Cc1ccc(OCC(F)(F)F)c(N2C(=O)CS/C2=N\C(=O)N/N=C/c2ccc(-c3ncn(-c4ccc(OC(F)(F)F)cc4)n3)cc2)c1` [Compound A6, N—((Z)-3-(5-Methyl-2-(2,2,2-trifluoroethoxy)phenyl)-4-oxothiazolidin-2-ylidene)-2-((E)-4-(1-(4-(trifluoromethoxy)phenyl)-1H-1,2,4-triazol-3-yl)benzylidene)hydrazine-1-carboxamide], the pest or weed control at 50 µg/cm2 in experiment [1] and in experiment [2] was 50 to 100% each time.

For `COc1ccc(N2C(=O)CS/C2=N\C(=O)N/N=C/c2ccc(-c3ncn(-c4ccc(OC(F)(F)F)cc4)n3)cc2)c(C)c1` [Compound A7, N—((Z)-3-(4-Methoxy-2-methylphenyl)-4-oxothiazolidin-2-ylidene)-2-((E)-4-(1-(4-(trifluoromethoxy)phenyl)-1H-1,2,4-triazol-3-yl)benzylidene)hydrazine-1-carboxamide], the pest or weed control at 50 µg/cm2 in experiment [1] and in experiment [2] was 50 to 100% throughout. Moreover, the “YFM % Control” value in experiment [3] is given as “A (80-100)”.

As to `CCOc1ccccc1N1C(=O)CS/C1=N\C(=O)N/N=C/c1ccc(-c2ncn(-c3ccc(OC(F)(F)F)cc3)n2)cc1` [Compound A8, N—((Z)-3-(2-Ethoxyphenyl)-4-oxothiazolidin-2-ylidene)-2-((E)-4-(1-(4-(trifluoromethoxy)phenyl)-1H-1,2,4-triazol-3-yl)benzylidene)hydrazine-1-carboxamide], the pest or weed control at 50 µg/cm2 in experiment [1] and in experiment [2] was 50 to 100% throughout.

On to `Cc1ccc(C(F)(F)F)c(N2C(=O)CS/C2=N\C(=O)N/N=C/c2ccc(-c3ncn(-c4ccc(OC(F)(F)F)cc4)n3)cc2)c1` [Compound A9, N—((Z)-3-(5-methyl-2-(trifluoromethyl)phenyl)-4-oxothiazolidin-2-ylidene)-2-((E)-4-(1-(4-(trifluoromethoxy)phenyl)-1H-1,2,4-triazol-3-yl)benzylidene)hydrazine-1-carboxamide], for which the pest or weed control at 50 µg/cm2 in experiment [1] and in experiment [2] was 50 to 100% each time.
